Experimental data taken from PubChem BioAssay (NCI).
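Tested at 5 concentrations; 48 h exposure; 96-well plates; endpoints linearly interpolated, else capped at highest concentration. TGI marks complete inhibition of growth.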

Key:
Test in all cases: inhibition of tumour cell growth, NCI panel, 48 h
[1] = tested on: LOX IMVI melanoma
[2] = tested on: NCI-H23 lung
[3] = tested on: CAKI-1 renal
[4] = tested on: MCF7 breast
[5] = tested on: BT-549 breast
[6] = tested on: HOP-62 NSCLC
[7] = tested on: OVCAR-4 ovarian
[8] = tested on: COLO 205 colon
[9] = tested on: SN12C renal
[10] = tested on: NCI/ADR-RES ovarian
[11] = tested on: UACC-257 melanoma
[12] = tested on: SW-620 colon
[13] = tested on: HCT-15 colon
[14] = tested on: A549 NSCLC
[15] = tested on: SK-OV-3 ovarian
[16] = tested on: RPMI-8226 leukemia
[17] = tested on: SNB-75 CNS
[18] = tested on: RXF 393 renal
[19] = tested on: HCC-2998 colon
[20] = tested on: HS 578T breast
[21] = tested on: IGROV1 ovarian
[22] = tested on: K-562 leukemia
[23] = tested on: MOLT-4 leukemia
[24] = tested on: OVCAR-3 ovarian
[25] = tested on: TK-10 renal
[26] = tested on: SF-539 CNS
[27] = tested on: OVCAR-8 ovarian
[28] = tested on: 786-0 renal
[29] = tested on: OVCAR-5 ovarian
[30] = tested on: UACC-62 melanoma
[31] = tested on: UO-31 renal
[32] = tested on: MALME-3M melanoma
[33] = tested on: M14 melanoma
[34] = tested on: HL-60(TB) leukemia
[35] = tested on: PC-3 prostate
[36] = tested on: KM12 colon
[37] = tested on: MDA-MB-435
[38] = tested on: SNB-19 CNS
[39] = tested on: U251 CNS
[40] = tested on: MDA-MB-231 breast
[41] = tested on: NCI-H226 lung
[42] = tested on: MDA-N
[43] = tested on: SK-MEL-28 melanoma
[44] = tested on: DU-145 prostate
[45] = tested on: SK-MEL-5 melanoma
[46] = tested on: EKVX NSCLC
[47] = tested on: SF-295 CNS
[48] = tested on: HCT-116 colon
[49] = tested on: CCRF-CEM leukemia
[50] = tested on: SF-268 CNS
[51] = tested on: HT29 colon
[52] = tested on: NCI-H460 lung
[53] = tested on: NCI-H522 lung
[54] = tested on: HOP-92 NSCLC
[55] = tested on: T-47D breast
[56] = tested on: ACHN renal
[57] = tested on: SR leukemia
[58] = tested on: SK-MEL-2 melanoma
[59] = tested on: A498 renal

Measured: TGI

COC(=O)c1nsc(OC)c1Cl
not listed: [52] | [53] | [54] | [55] | [56] | [57] | [58] | [59]
> 100 µM: all other assays above

O=C(O)c1ccc(C(=O)O)c2c(C(=O)O)ccc(C(=O)O)c12
not listed: [5] | [19] | [34] | [49]
> 100 µM: all other assays above

C[C@H]1C(=O)O[C@@H]2CCN3CC=C(COC(=O)[C@](C)(O)[C@@]1(C)O)[C@H]23
not listed: [18] | [32] | [52] | [57]
> 100 µM: all other assays above

O=C(CNS(=O)(=O)Cc1ccccc1)NNc1ccccc1
12.4 µM: [8]
> 25.6 µM: [26] | [30]
not listed: [59]
> 100 µM: all other assays above

O=C1C=C(NCCOCCO)C(=O)c2c(O)ccc(O)c21
66.9 µM: [33]
87.4 µM: [22]
57.1 µM: [13]
73.6 µM: [14]
32.6 µM: [37]
43.6 µM: [19]
78 µM: [16]
77.9 µM: [39]
24.2 µM: [32]
51.9 µM: [58]
33.1 µM: [12]
47.1 µM: [53]
25.9 µM: [45]
83 µM: [56]
38.4 µM: [11]
47.9 µM: [2]
40.4 µM: [34]
42.2 µM: [51]
31.3 µM: [42]
86.5 µM: [27]
54.6 µM: [26]
33.4 µM: [7]
79.7 µM: [23]
40.1 µM: [4]
30 µM: [1]
65.7 µM: [10]
76.2 µM: [49]
32.7 µM: [8]
59.8 µM: [55]
51.3 µM: [54]
55 µM: [48]
65.4 µM: [24]
28.2 µM: [30]
not listed: [9] | [46] | [57]
> 100 µM: all other assays above

C=CCN1CCC(O)(c2cc(C(=O)OCC)[nH]c2-c2cc(C)no2)C1 (stereo not given)
not listed: [4] | [6] | [19] | [20] | [57]
> 100 µM: all other assays above

CC(C)(C)[Si](C)(C)Oc1ccc(C2CNC(=O)C23CCC(=O)N3Cc2ccccc2)cc1 (stereo not given)
30.7 µM: [26]
35.5 µM: [58]
53.3 µM: [6]
21.5 µM: [20]
36.9 µM: [29]
29.5 µM: [38]
17.6 µM: [4]
32.9 µM: [31]
29 µM: [15]
26 µM: [50]
31.1 µM: [12]
25.7 µM: [11]
25.3 µM: [8]
35.7 µM: [35]
18.8 µM: [16]
48.4 µM: [32]
23.2 µM: [18]
30.6 µM: [47]
35 µM: [33]
19.6 µM: [45]
35.9 µM: [9]
24.8 µM: [51]
34.6 µM: [54]
45 µM: [3]
29.2 µM: [53]
29.1 µM: [7]
20.8 µM: [52]
31.6 µM: [21]
33 µM: [24]
22.4 µM: [46]
27.3 µM: [42]
41.2 µM: [1]
32.1 µM: [17]
36.2 µM: [39]
38.7 µM: [44]
29.9 µM: [37]
30 µM: [13]
33.2 µM: [14]
25.1 µM: [59]
30.9 µM: [56]
33.1 µM: [5]
28.8 µM: [27]
25.5 µM: [2]
26.7 µM: [10]
45.3 µM: [28]
51.8 µM: [25]
63 µM: [55]
49.2 µM: [34]
32 µM: [30]
44.8 µM: [41]
not listed: [19] | [40] | [43]
> 100 µM: all other assays above
